The structures appear in SMILES notation.

human HPK1 (MAP4K1), sequence (Q92918 17-274): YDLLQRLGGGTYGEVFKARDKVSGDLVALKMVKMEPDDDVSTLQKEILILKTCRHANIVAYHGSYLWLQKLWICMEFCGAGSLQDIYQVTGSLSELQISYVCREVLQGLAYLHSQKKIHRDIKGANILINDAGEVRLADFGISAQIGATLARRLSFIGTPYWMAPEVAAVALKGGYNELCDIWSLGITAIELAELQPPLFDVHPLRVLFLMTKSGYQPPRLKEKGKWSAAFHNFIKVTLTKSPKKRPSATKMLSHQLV

For one experiment, the target named is human HPK1 (MAP4K1) (Homo sapiens (Human), UniProt Q92918). Kind of experiment: HPK1 IC50 Assay (TR-FRET peptide phosphorylation). To be noted: 0.15 nM HPK1, 10 μM ATP, 1 μM STK S1 peptide substrate; geometric mean. Format: biochemical. The method, boiled down:
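Readout: TR-FRET (665 nm/620 nm) after EDTA stop, detecting STK S1 peptide (1 μM) phosphorylation by 0.15 nM HPK1 kinase domain, ATP-pre-activated, at 10 μM ATP over 3 h, 25° C, pH 7.0. IC50s from four-parameter variable-slope fits, normalized to staurosporine and DMSO, averaged geometrically.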
For orientation: In TR-FRET formats the signal depends on donor and acceptor labels being close together.
In general, IC50 refers to the point on the concentration scale where inhibition reaches its midpoint. `CCNC(=O)c1cc(Nc2nc(-c3cc4c(nc3F)C(C)(C)C(=O)N4[C@H]3C[C@@](C)(N4CCCC5(CC5)C4)C3)cc3ncn(C(C)C)c23)c(F)c(F)c1Cl` [Example 270, 2-chloro-N-ethyl-3,4-difluoro-5-((6-(5-fluoro-3,3-dimethyl-1-((1s,3s)-3-methyl-3-(5-azaspiro[2.5]octan-5-yl)cyclobutyl)-2-oxo-2,3-dihydro-1H-pyrrolo[3,2-b]pyridin-6-yl)-3-isopropyl-3H-imidazo[4,5-c]pyridin-4-yl)amino)benzamide] had an IC50 of 0.1 nM.

The same experiment, now with this note: recombinant HPK1 kinase domain 0.15 nM, 10 μM ATP, 1 μM STK S1 peptide; geometric mean of multiple experiments.
`CC(C)n1cnc2cc(-c3cnc4c(c3)N([C@H]3C[C@@](C)(N5CCC6CC6C5)C3)C(=O)C4(C)C)nc(Nc3cc(C(=O)NC4(CF)CC4)c(Cl)c(F)c3F)c21` (some centres unmarked) [Example 227, 5-((6-(1-((1s,3s)-3-(3-Azabicyclo[4.1.0]heptan-3-yl)-3-methylcyclobutyl)-3,3-dimethyl-2-oxo-2,3-dihydro-1H-pyrrolo[3,2-b]pyridin-6-yl)-3-isopropyl-3H-imidazo[4,5-c]pyridin-4-yl)amino)-2-chloro-3,4-difluoro-N-(1-(fluoromethyl)cyclopropyl)benzamide]: the IC50 was 0.1 nM.
Still for that read-out and setting: as for `CC(=O)N1CCC2(CC1)C(=O)N([C@H]1C[C@@H](N3CCCCC3)C1)c1cc(-c3cc4ncn(C(C)C)c4c(Nc4cc(C(=O)NC(C)C)c(F)cc4F)n3)ccc12` [Example 180], the figure is 0.2 nM.
Same read-out and setting: the figure for `Cc1c(C(=O)NC2(C(F)F)CC2)cc(Nc2nc(-c3cc4c(nc3F)C(C)(C)C(=O)N4[C@H]3C[C@@](C)(N4CCCCC4)C3)cc3ncn(C(C)C)c23)c(F)c1F` [Example 195, N-(1-(Difluoromethyl)cyclopropyl)-3,4-difluoro-5-((6-(5-fluoro-3,3-dimethyl-1-((1s,3s)-3-methyl-3-(piperidin-1-yl)cyclobutyl)-2-oxo-2,3-dihydro-1H-pyrrolo[3,2-b]pyridin-6-yl)-3-isopropyl-3H-imidazo[4,5-c]pyridin-4-yl)amino)-2-methylbenzamide] is 0.07 nM; for `Cc1ccc(Nc2nc(-c3cnc4c(c3)N([C@H]3C[C@@H](N5CCCCC5)C3)C(=O)C4(C)C)cc3ncn(C(C)C)c23)cc1C(=O)NC1(C(F)F)CC1` [Example 19] it is 0.3 nM; for `CNC(=O)c1cc(Nc2nc(-c3ccc4c(c3)N([C@H]3C[C@@H](N5CCC(C)(C)C5)C3)C(=O)C43CCN(C(C)=O)CC3)cc3ncn(C4CC4)c23)ccc1C` [Example 159] it is 0.1 nM.
Turning to `Cc1c(C(=O)NC2(C(F)F)CC2)cc(Nc2nc(-c3cnc4c(c3)N([C@H]3C[C@@](C)(N5CC6CCC(C5)O6)C3)C(=O)C4(C)C)cc3ncn(C(C)C)c23)c(F)c1F` [Example 228, 5-((6-(1-((1s,3s)-3-(8-Oxa-3-azabicyclo[3.2.1]octan-3-yl)-3-methylcyclobutyl)-3,3-dimethyl-2-oxo-2,3-dihydro-1H-pyrrolo[3,2-b]pyridin-6-yl)-3-isopropyl-3H-imidazo[4,5-c]pyridin-4-yl)amino)-N-(1-(difluoromethyl)cyclopropyl)-3,4-difluoro-2-methylbenzamide], the concentration for half-maximal inhibition (IC50) amounted to 0.3 nM.
Same read-out and setting: the figure for `Cc1ccc(Nc2nc(-c3ccc4c(c3)N([C@H]3C[C@@H](N5CCC[C@@H](O)C5)C3)C(=O)C4(C)C)cc3ncn(C4CC4)c23)cc1C(N)=O` [Example 37] is 0.1 nM.
Still for that read-out and setting: as for `CCn1cnc2cc(-c3ccc4c(c3)N([C@H]3C[C@@H](N5CCCCC5)C3)C(=O)C4(C)C)nc(Nc3ccc(C)c(C(=O)NC)c3)c21` [Example 102], the figure is 0.09 nM.
Turning to `Cc1ccc(Nc2nc(-c3ccc4c(c3)N([C@H]3C[C@@H](N5CCCCC5)C3)C(=O)C4(C)C)cc3ncn(C(C)C)c23)cc1C(=O)NC(C)C(F)F` (some centres unmarked) [Example 21, N-(1,1-difluoropropan-2-yl)-5-((6-(3,3-dimethyl-2-oxo-1-((1s,3s)-3-(piperidin-1-yl)cyclobutyl)indolin-6-yl)-3-isopropyl-3H-imidazo[4,5-c]pyridin-4-yl)amino)-2-methylbenzamide], the IC50 is 0.05 nM.
The same measure, in the same setting: as for `Cc1ccc(Nc2nc(-c3ccc4c(c3)N([C@H]3C[C@@H](N5CCCCC5)C3)C(=O)C4(C)C)cc3ncn(C(C)C)c23)cc1C(=O)NCCC(F)F` [Example 25], the figure is 0.07 nM.

(Values after US11203591B2, “Substituted 6-azabenzimidazole compounds” (Gilead Sciences, Inc., priority 2018, dated 2021).)
